Data taken from patent publication US20030037354A1, “Animal model with disrupted Fgf14 gene” (priority 2001, published 2003).
Read-outs that look alike come from different tables or passages of the source.

Experiments:
[1] = test system: wildtype and FGF14 deficient mice; test: PTZ-induced seizure: latency to onset and time to death; assay type: in vivo, mouse; conditions: for time to death (mean duration): FGF14 (−/−) mice
Protocol: Time to onset of tonic-clonic seizure was recorded. In the first experiment (FIG. 9), the mean age was 82 days and the sex ratio was 50% male/female. In the second experiment, the mean age was 354 days and all animals were female.

[2] = test system: wildtype and Fgf14^N-βGal/N-βGal mice; test: Locomotor activity response to stimulant drugs and dopamine receptor agonists; assay type: in vivo, mouse
Protocol: Locomotor activity. For the locomotor activity experiments, all mice were acclimated to the activity cages (28 cm long×17 cm wide×12.5 cm high) for one hour on two consecutive days. […] Mice were tested every other day and the order of drug treatment was counterbalanced across days within genotype groups. Locomotor activity was recorded every five minutes by two beams of red light placed at 10 and 19 cm along the length of the activity cage.
Statistical Analyses. The behavioral data were analyzed using analysis of variance (ANOVA) models typically containing one between-subjects variable (Genotype) and one within-subjects variable (e.g., Trials or Test Sessions). Subsequent one-way ANOVAs were used to evaluate main effects. Data from the experiments concerning drug effects on locomotor activity were analyzed by using a […] analysis of variance (ANOVA) with one between-subjects variable (Drug) being added to the above model. […] Alpha was set at p<0.05 for all analyses.

extracellular dopamine = conditions: cited from earlier work
[3] = test system: Dopamine D1 receptor deficient mice; conditions: cited from earlier work
[4] = test system: wildtype and Fgf14^N-βGal/N-βGal mice; test: Cocaine-induced seizure activity with EEG recording; assay type: in vivo, mouse
Protocol: Surgical implantation of skull screw electrodes was performed with the mice positioned in a stereotaxic frame under halothane anesthesia. Using sterile technique, the scalp was incised at the midline and the periosteum was scraped free from the skull. Three burr holes were made with a high speed drill for placement of epidural screw electrodes. Two active electrodes were placed over the right and left frontal cortex approximately 1 mm posterior to the bregma. A reference electrode was implanted in the region over the frontal sinus. The electrodes and lead wires were stabilized to the skull with dental cement. The mice were allowed a three-day recovery period before recording. Reference EEG recordings from the right and left frontal regions were performed using a Grass P5 Series AC amplifier with high and low frequency filter settings at 100 and 1 Hz, respectively. The outputs of the amplifiers were digitized and stored using an analog-to-digital converter and Axoscope software.

[5] = Fgf14^N-βGal/N-βGal mice, 40 mg/kg

C1CCc2nnnn2CC1 [PTZ, pentylenetetrazol]
time to death (mean duration) ([1]; Experiment 1, 100 mg/kg IP, average age 82 days): about 4200 seconds | time to death (mean duration) ([1]; Experiment 2, 75 mg/kg IP, average age 354 days): ~5700 s | time to death after seizure onset ([1]; wild type mice): 15 to 20 s

Oc1cc2c(cc1O)C(c1ccccc1)CNCC2 (stereo not shown) [SKF38393]
reduction in the locomotor activity induced by the D1R agonist ([2]; Fgf14^N-βGal/N-βGal mice compared to wildtype): 30%

CC(N)Cc1ccccc1 (stereo not shown) [amphetamine]
elevation of DA efflux above baseline (extracellular dopamine; 2 mg/kg): 350% | elevation of DA efflux above baseline (extracellular dopamine; 4 mg/kg): 750% | hyperactivity response relative to wildtype littermates ([2]; Fgf14^N-βGal/N-βGal mice, 2 and 4 mg/kg subcutaneous): significantly lower | locomotor response ([3]; 2 mg/kg): non-responsive | locomotor response ([3]; 5 mg/kg): decreased response

COC(=O)[C@H]1[C@@H](OC(=O)c2ccccc2)C[C@@H]2CC[C@H]1N2C [cocaine]
EEG recording [4, 5]: epileptiform activity | induction of seizures (behaviour) [4, 5]: brief tonic movements | induction of seizures ([4]; both wildtype and FGF14 deficient mice, 80 mg/kg): tonic-clonic seizures | induction of seizures ([4]; wildtype mice, 40 mg/kg): did not induce seizures
